Structures can show the parent of a compound that is named as a salt.
Tests used:
Format in all cases: biochemical
human a-thrombin = molecular target: T1, human a-thrombin (Homo sapiens, UniProt P00734); assay: Enzymatic assay for thrombin (fluorogenic peptide substrate Boc-VPR-AMC); settings: room temperature, 20 mM Hepes pH 7.4, 20 min
T1 construct: enzyme (human a-thrombin (BioPharm® Lab.)); purchased BioPharm Lab
Method in brief: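 Human α-thrombin was incubated with serially diluted compound and fluorogenic substrate Boc-VPR-AMC in 20 mM Hepes pH 7.4, 140 mM NaCl, 0.1% Tween 20 at room temperature. The reaction was stopped after 20 min with 0.1 M acetic acid and fluorescence read. % activity was normalized to DMSO and no-enzyme controls, and IC50 was taken as equivalent to Ki.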

[1] = tested on: Lectin Pathway Activation (LPA) in human serum; assay: Lectin pathway activation (LPA) assay in human serum, C4 deposition on mannan-coated plate; settings: 1% pooled human serum, 55 minutes, room temperature
Experimental: A Microtiter ELISA plate (Nunc-Maxi Sorp; Sigma-Aldrich®, USA) was coated with mannan sourced from Saccharomyces cerevisiae (Sigma-Aldrich®, USA) in a coating buffer comprising 33.3 mM Na2CO3 and 166.67 mM NaHCO3. The plates were incubated at room temperature overnight. Subsequently, the plates were blocked with a 5% bovine serum albumin solution (Sigma-Aldrich®, USA) prepared in PBST for 2 hours at room temperature with agitation. Varying concentrations of MASP-2 inhibitors were dispensed onto the empty plate.
To perform the assay, pooled human serum was diluted to 1% in a solution of 20 mM HEPES (pH=7.4), 140 mM NaCl, and 1 mM MgCl2. Then, 40 μl of the diluted human serum was dispensed into each well of the Microtiter ELISA plate and incubated for 55 minutes at room temperature. The C4 deposition on the mannan-coated surface was stopped using an EDTA stop solution (20 mM HEPES, pH=7.4, 140 mM NaCl, and 150 mM EDTA). Subsequently, rabbit anti-Human C4c antibody (Agilent Technologies, USA) prepared in PBST was added, and the plates were incubated at room temperature for 30 minutes with agitation, then washed with PBST, and Goat anti-rabbit IgG(H+L) HRP-conjugated (Southern Biotech®, USA) was added. The plates were again incubated at room temperature for 30 minutes with agitation, and then were washed with PBST. Following this, the Amplex® UltraRed® (Thermo Fischer Sci, USA) substrate solution was added for 16 minutes, followed by the addition of the Amplex® UltraRed® stop solution. The plates' fluorescence was measured using an i3× microplate reader (Molecular Devices, USA) with excitation at 550 nm and emission at 580 nm. The raw data generated from the plate reader was exported to GraphPad Prism® (version 10.0.3), and the non-linear regression curve was generated using the 4-parameter logistic fit equation. All data are reported as pIC50 with a 95% confidence interval.

MASP-2 (CCP1-CCP2-SP) = molecular target: T2, MASP-2 (CCP1-CCP2-SP) (Homo sapiens, UniProt O00187); assay: Enzymatic assay for MASP-2 inhibitory activity (fluorogenic substrate); settings: room temperature, 20 mM Hepes pH 7.4, 20 min
T2 construct: 15 μL of Enzyme MASP-2 (CCP1-CCP2-SP) in Assay Buffer
T2 sequence (O00187 287-686 limits assumed): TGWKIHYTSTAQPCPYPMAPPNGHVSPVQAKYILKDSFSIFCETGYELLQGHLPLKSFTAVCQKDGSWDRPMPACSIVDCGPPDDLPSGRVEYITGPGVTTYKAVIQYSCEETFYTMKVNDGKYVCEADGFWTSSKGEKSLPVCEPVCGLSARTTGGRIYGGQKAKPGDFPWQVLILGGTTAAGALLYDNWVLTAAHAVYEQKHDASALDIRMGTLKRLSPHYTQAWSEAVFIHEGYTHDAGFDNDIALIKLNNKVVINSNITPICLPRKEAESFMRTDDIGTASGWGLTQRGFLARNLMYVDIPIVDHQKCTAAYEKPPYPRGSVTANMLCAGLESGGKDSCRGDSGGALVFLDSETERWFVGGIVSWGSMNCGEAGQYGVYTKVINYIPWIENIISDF
Method in brief: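 Human MASP-2 CCP1-CCP2-SP construct with a C2-cleavage-site fluorogenic substrate in 20 mM HEPES pH 7.4, 140 mM NaCl, 0.1% Tween 20, 20 min at room temperature before acetic acid stop. Activity normalised to DMSO and no-enzyme controls; IC50 taken as equivalent to Ki under linear conditions.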

| Structure (SMILES) | Ki (human a-thrombin) [µM] | IC50 [1] [µM] | Ki (MASP-2 (CCP1-CCP2-SP)) [µM] |
| --- | --- | --- | --- |
| Cc1cc(Cl)cc(CNc2cnc3n(c2=O)[C@H](C(=O)N[C@@H]2CCc4nc(N)ccc42)CC3)c1 [Compound 83, (S)—N—((R)-2-amino-6,7-dihydro-5H-cyclopenta[b]pyridin-5-yl)-3-((3-chloro-5-methylbenzyl)amino)-4-oxo-4,6,7,8-tetrahydropyrrolo[1,2-a]pyrimidine-6-carboxamide] | < 0.5 |  | < 0.5 |
| Nc1ccc2c(n1)CC[C@H]2NC(=O)[C@@H]1CCc2ncc(NCc3cccc(C(F)F)c3)c(=O)n21 [Compound 84, (S)-N-((R)-2-amino-6,7-dihydro-5H-cyclopenta[b]pyridin-5-yl)-3-((3-(difluoromethyl)benzyl)amino)-4-oxo-4,6,7,8-tetrahydro-pyrrolo[1,2-a]pyrimidine-6-carboxamide] | 0.5 to 2.5 |  | < 0.5 |
| Cc1ccc(CNc2cnc3n(c2=O)[C@H](C(=O)N[C@@H]2CCc4nc(N)ccc42)CC3)cc1C#N [Compound 88, (S)-N-((R)-2-amino-6,7-dihydro-5H-cyclopenta[b]pyridin-5-yl)-3-((3-cyano-4-methylbenzyl)amino)-4-oxo-4,6,7,8-tetrahydro-pyrrolo[1,2-a]pyrimidine-6-carboxamide] | 0.5 to 2.5 |  | < 0.5 |
| N#CCc1cccc(CNc2cnc3n(c2=O)[C@H](C(=O)N[C@@H]2CCc4nc(N)ccc42)CC3)c1 [Compound 91, (S)-N-((R)-2-amino-6,7-dihydro-5H-cyclopenta[b]pyridin-5-yl)-3-((3-(cyanomethyl)benzyl)amino)-4-oxo-4,6,7,8-tetrahydro-pyrrolo[1,2-a]pyrimidine-6-carboxamide] | 0.5 to 2.5 |  | < 0.5 |
| Cc1c(C#N)cccc1CNc1cnc2n(c1=O)[C@H](C(=O)N[C@@H]1CCc3nc(N)ccc31)CC2 [Compound 92, (S)-N-((R)-2-amino-6,7-dihydro-5H-cyclopenta[b]pyridin-5-yl)-3-((3-cyano-2-methylbenzyl)amino)-4-oxo-4,6,7,8-tetrahydro-pyrrolo[1,2-a]pyrimidine-6-carboxamide] | 2.5 to 10 |  | < 0.5 |
| N#Cc1cc(F)cc(CNc2cnc3n(c2=O)[C@H](C(=O)N[C@@H]2CCc4nc(N)ccc42)CC3)c1 [Compound 93, (S)-N-((R)-2-amino-6,7-dihydro-5H-cyclopenta[b]pyridin-5-yl)-3-((3-cyano-5-fluorobenzyl)amino)-4-oxo-4,6,7,8-tetrahydro-pyrrolo[1,2-a]pyrimidine-6-carboxamide] | 0.5 to 2.5 |  | < 0.5 |
| Cc1cc(F)cc(CNc2cnc3n(c2=O)[C@H](C(=O)N[C@@H]2CCc4nc(N)ccc42)CC3)c1 [Compound 96] | 0.5 to 2.5 |  | < 0.5 |
| C#Cc1cccc(CNc2cnc3n(c2=O)[C@H](C(=O)N[C@@H]2CCc4nc(N)ccc42)CC3)c1 [Compound 98] | < 0.5 |  | < 0.5 |
| Nc1ccc2c(n1)CC[C@H]2NC(=O)[C@@H]1CCc2ncc(NCc3cccc(F)c3)c(=O)n21 [Compound 101] | 0.5 to 2.5 |  | < 0.5 |
| Nc1ccc2c(n1)CC[C@H]2NC(=O)[C@@H]1CCc2ncc(NCc3cccc(CO)c3)c(=O)n21 [Compound 103] | 2.5 to 10 |  | < 0.5 |
| Cc1cc(C)cc(CNc2cnc3n(c2=O)[C@H](C(=O)N[C@@H](C)c2cc4c(s2)CNC4)CC3)c1 [Compound 107] | > 25 |  | < 0.5 |

Now from value to molecule:

| Ki (human a-thrombin) [µM] | IC50 [1] [µM] | Ki (MASP-2 (CCP1-CCP2-SP)) [µM] | Structure (SMILES) |
| --- | --- | --- | --- |
| 2.5 to 10 | < 0.5 | < 0.5 | Cc1cc(C)cc(CNc2cnc3n(c2=O)[C@H](C(=O)NCc2cnc4[nH]cc(Cl)c4c2)CC3)c1 [Compound 18, (S)—N-((3-chloro-1H-pyrrolo[2,3-b]pyridin-5-yl)methyl)-3-((3,5-dimethylbenzyl)amino)-4-oxo-4,6,7,8-tetrahydropyrrolo[1,2-a]pyrimidine-6-carboxamide, trifluoracetate] |
| > 25 | < 0.5 | < 0.5 | Cc1cc(C)cc(CNc2cnc3n(c2=O)[C@H](C(=O)NCc2ccc4cncn4c2)CC3)c1 [Compound 20, (S)-3-((3,5-dimethylbenzyl)amino)-N-(imidazo[1,5-a]pyridin-6-ylmethyl)-4-oxo-4,6,7,8-tetrahydropyrrolo[1,2-a]pyrimidine-6-carboxamide] |
| > 25 | < 0.5 | < 0.5 | Cc1cc(C)cc(CNc2cnc3n(c2=O)[C@H](C(=O)NCc2cnc4c(c2)CNC4)CC3)c1 [Compound 22, (S)—N-((6,7-dihydro-5H-pyrrolo[3,4-b]pyridin-3-yl)methyl)-3-((3,5-dimethylbenzyl)amino)-4-oxo-4,6,7,8-tetrahydropyrrolo[1,2-a]pyrimidine-6-carboxamide, trifluoroacetate] |
| > 25 | < 0.5 | < 0.5 | Cc1cc(F)cc(CNc2cnc3n(c2=O)[C@H](C(=O)N[C@H](C)c2ccc(N)nc2)CC3)c1 [Compound 25, (S)—N—((R)-1-(6-aminopyridin-3-yl)ethyl)-3-((3-fluoro-5-methylbenzyl)amino)-4-oxo-4,6,7,8-tetrahydropyrrolo[1,2-a]pyrimidine-6-carboxamide, DI-trifluoroacetate] |
| 10 to 25 | < 0.5 | < 0.5 | Cc1nc(N)ccc1CNC(=O)[C@@H]1CCc2ncc(NCc3ccc(-n4cccn4)cc3)c(=O)n21 [Compound 44, (S)-3-((4-(1H-pyrazol-1-yl)benzyl)amino)-N-((6-amino-2-methylpyridin-3-yl)methyl)-4-oxo-4,6,7,8-tetrahydropyrrolo[1,2-a]pyrimidine-6-carboxamide, trifluoroacetate] |
| 0.5 to 2.5 | < 0.5 | < 0.5 | COc1ccc(CNc2cnc3n(c2=O)[C@H](C(=O)NCc2ccc(N)nc2C)CC3)cc1F [Compound 46, (S)-N-((6-amino-2-methylpyridin-3-yl)methyl)-3-((3-fluoro-4-methoxybenzyl)amino)-4-oxo-4,6,7,8-tetrahydropyrrolo[1,2-a]pyrimidine-6-carboxamide, di-trifluoroacetate] |
| 0.5 to 2.5 |  | < 0.5 | Cc1nc(N)ccc1CNC(=O)[C@@H]1CCc2ncc(NCc3cccc(CC#N)c3)c(=O)n21 [Compound 80, (S)-N-((6-amino-2-methylpyridin-3-yl)methyl)-3-((3-(cyanomethyl)benzyl)amino)-4-oxo-4,6,7,8-tetrahydropyrrolo[1,2-a]pyrimidine-6-carboxamide] |
| > 25 |  | < 0.5 | Cc1cc(Cl)cc(CNc2cnc3n(c2=O)[C@H](C(=O)N[C@@H]2CCc4ncccc42)CC3)c1 [Compound 85, (S)-3-((3-chloro-5-methylbenzyl)amino)-N-((R)-6,7-dihydro-5H-cyclopenta[b]pyridin-5-yl)-4-oxo-4,6,7,8-tetrahydropyrrolo[1,2-a]pyrimidine-6-carboxamide] |
| < 0.5 |  | < 0.5 | COc1cc(Cl)cc(CNc2cnc3n(c2=O)[C@H](C(=O)N[C@@H]2CCc4nc(N)ccc42)CC3)c1 [Compound 87, (S)-N-((R)-2-amino-6,7-dihydro-5H-cyclopenta[b]pyridin-5-yl)-3-((3-chloro-5-methoxybenzyl)amino)-4-oxo-4,6,7,8-tetrahydro-pyrrolo[1,2-a]pyrimidine-6-carboxamide] |
| < 0.5 |  | < 0.5 | N#Cc1cc(Cl)cc(CNc2cnc3n(c2=O)[C@H](C(=O)N[C@@H]2CCc4nc(N)ccc42)CC3)c1 [Compound 89, (S)-N-((R)-2-amino-6,7-dihydro-5H-cyclopenta[b]pyridin-5-yl)-3-((3-chloro-5-cyanobenzyl)amino)-4-oxo-4,6,7,8-tetrahydro-pyrrolo[1,2-a]pyrimidine-6-carboxamide] |
| 2.5 to 10 |  | < 0.5 | Nc1ccc2c(n1)CC[C@H]2NC(=O)[C@@H]1CCc2ncc(NCc3ccc4c(c3)OCC4)c(=O)n21 [Compound 99] |
| 10 to 25 |  | < 0.5 | Nc1ccc2c(n1)CC[C@H]2NC(=O)[C@@H]1CCc2ncc(NCc3cccc(-c4ccccc4)c3)c(=O)n21 [Compound 102] |
| 0.5 to 2.5 |  | < 0.5 | CC(=O)c1cccc(CNc2cnc3n(c2=O)[C@H](C(=O)N[C@@H]2CCc4nc(N)ccc42)CC3)c1 [Compound 104] |

Reference: patent US20240228499A1, “MASP-2 INHIBITORS AND METHODS OF USE” (Omeros Corporation, priority 2022, published 2024)
